Test system: ophthalmic mucous membrane
Conditions: rabbit, in vivo
Protocol: The testing method of the present test was based on the guidelines given by OECD. That means, 3 rabbits were used in this study, and a test drug was administered once into one eye of a rabbit in the conjunctival sac, and the other eye was used as control. […] Eyes were washed using lukewarm water of about 35° C. at the observation 24 hours after the administration. Scores of the conjunctival reaction obtained by administration of each test drug were calculated according to the assessment criteria of Draize method. The maximum of total score at each observation time was obtained for each test drug and for each test animal, and the average was calculated, then irritation evaluation in 8 stages (FIG. 9) was carried out according to the Kay and Calandra ophthalmic mucous membrane irritation classification method.

- average value (score) of the maximum Draize score: 29.0
Substance: sodium polystyrene sulphonate
- Kay and Calandra ophthalmic mucous membrane irritation classification (8 levels): Moderately irritating
